Measured values as given in US20130108565A1, “TANNING ENHANCERS AND SELF-TANNING SUBSTANCES” (MERCK PATENT GESELLSCHAFT MIT BESCHRANKTER HAFTUNG, priority 2010, published 2013).
Where “and” joins values, the source holds several entries; their conditions need not be identical. Equal entries are not always repeated.

Legend:
[1] = system: B16V mouse melanoma cells; assay: B16 V mouse melanoma cell test: melanin concentration after alpha-MSH stimulation; assay type: cell-based; conditions: for Relative melanin concentration (%): DMSO (0.1%) + α-MSH 10^-8 M, relative to blank DMSO + α-MSH = 100%
Protocol: Description of the performance of the B16 V mouse melanoma cell test:
B16V mouse melanoma cells (manufacturer: DSMZ; Article No.: ACC370) in RPMI medium (Invitrogen, Article No.: 31870), to which 10% of FBS (foetal bovine serum, Invitrogen, Article No: 10499044), 2 mM L-glutamine (Invitrogen, Article No: 25030) and 1 mM sodium pyruvate (Invitrogen, Article No: 11360) had additionally been added (modified RPMI medium), are transferred into a culture bottle and incubated at 37° C. and 5% CO2 for 72 h. The medium is separated off, and the cells are washed with 10 ml of D-PBS (Invitrogen, Article No. 14190) and subsequently filtered off with suction. 1 ml of HyQtase cell detachment solution (Hyclone, Article No. SV30030.01) is added to the cells. The bottle is swirled a number of times, and the HyQtase cell detachment solution is subsequently removed by suction. The cells are then incubated in the incubator at 37° C. and 5% CO2for 5 min. The cells are taken up in the modified RPMI medium (Invitrogen, Article No.: 31870), and the cell count is determined. To this end, the cells are stained with Tryptan Blue and counted in a Neubauer chamber. The cells are subsequently sown out again in the modified RPMI medium in a defined cell count of 80,000 cells per well (6-well clear plate, TCT, PS (Nunc)).
The plate is subsequently incubated at 37° C. and 5% CO2 for 24 h, the medium is then removed. 1980 μl of the isomaltulose dilution are subsequently added. For this substance dilution, the isomaltulose is dissolved in DMSO and subsequently filtered through a sterile filter (0.2 μm, Millipore, Article No. SLLG013SL). The solution is then diluted with the modified RPMI medium (in this case the FBS content in the RPMI medium is only 5%) in such a way that the isomaltulose concentration is 1 mM or 5 mM. 20 μl of an alpha-MSH solution in DMSO (alpha-melanocyte-stimulating hormone=alpha-MSH) (DMSO, Sigma, Article No.:D2650) are then added, so that the alpha-MSH concentration in the well is 10^−8 M. The plate is subsequently incubated again at 37° C. and 5% CO2 for 24 h. […]
After the final incubation period, the medium is removed by suction, and the cells are washed with 1000 μl of D-PBS (Invitrogen, Article No. 14190). […] The cell count is subsequently determined. To this end, the cells are stained with Tryptan Blue and counted in a Neubauer chamber. […] 200 μl are then pipetted as quadruple determination (per cup) into a 96-well plate (VWR, Article No. 4100636981), and the absorption at a wavelength of 405 nm is determined. […] The content of melanin can be determined in this way by means of a calibration line.
The other values were determined relative to the blank sample with dimethyl sulfoxide (DMSO) and α-MSH, whose measurement was set at 100%

[2] = system: explants from the stomach tissue of a pale-skinned person; assay: Ex-vivo study: chromametric colour measurement (L, a, b) of skin explants; set-up: species or system human; key to a / b: CIE L*a*b* colour coordinates (Minolta CR-300, D65); conditions: for L / a / b: n=3, listed as P2
Protocol: 12 explants from the stomach tissue of a pale-skinned person (type) having an average diameter of 10 mm are prepared (reference: […]-AB49). The explants are kept in a BEM medium (BIO-EC's explants medium) at 37° C. in a moist atmosphere comprising 5% of CO2. The following samples are tested: (in each case 3 explants), where the solutions of the corresponding substances used comprise 90% of water and 10% of ethanol. […] 2 μl of the respective sample are added to the explants and distributed for the first time (DO), 1 day later (D1), 2 days later (D2), 3 days later (D3) and 4 days later (D4). The colour of the explants is determined chromametrically. The measurements are carried out on addition (DO), on day 1 (D1), on day 5 (D5) and on day 11 (D11). The colour measurements are carried out using a Minolta CR-300 Chroma-meter, and the L, a and b values are read off correspondingly on the instrument. […] A colour area is present here which is viewed at a viewing angle of 2 degrees. This viewing angle is used as standard in the chromametric measurement. • Irradiation source D65, corresponding to daylight • Region of the measurement: 3 mm • Parameters used: L* a* b* The sample is placed on the bearing rail with the epidermis facing downwards. The irradiation is carried out from the underside through the area indicated (3 mm). In the colorimetric determinations <L a b>, the L value determines the contrast of the skin. If the L value drops, the skin appears darker.

[3] = D0 (on addition), single explant values
[4] = D1, 2 μl sample applied D0-D4, single explant values
[5] = D5, 2 μl sample applied D0-D4, single explant values
[6] = D11, 2 μl sample applied D0-D4, single explant values
[7] = in comparison with the untreated sample

## OC[C@H]1O[C@H](OC[C@H]2OC(O)(CO)[C@@H](O)[C@@H]2O)[C@H](O)[C@@H](O)[C@@H]1O (stereo partly drawn) [isomaltulose, α-D-glucopyranose-(1→6)-D-fructose (open, α- or (β-form) (isomaltulose)]
[1]; 1 mM
  Relative melanin concentration (%): 65.0%
[1]; 5 mM
  Relative melanin concentration (%): 58.1%
[1]; cell culture tests with B16V mouse melanoma cells
  melanin production: reduces melanin production
[2]; [3]
  L: 62.89 and 62.96 and 61.62
  a: 2.75 and 2.19 and 3.28
  b: 15.88 and 18.71 and 18.43
[2]; [4]
  L: 63.09 and 64.04 and 62.97
  a: 3.72 and 2.1 and 3.32
  b: 16.05 and 17.73 and 17.92
[2]; [5]
  L: 63.79 and 62.89 and 63.61
  a: 2.57 and 2.67 and 3.26
  b: 14.33 and 17.15 and 16.3
[2]; [6]
  L: 65.69 and 59.72 and 60.71
  a: 2.41 and 3.44 and 3.59
  b: 12.35 and 11.35 and 11.57
[2]; [7]
  skin darkness (L values): darkening of the skin
  skin shade, red-brown shift (a value): more natural skin shade

## O=c1cc(CO)occ1O [kojic acid, reference compound]
[1]; 1 mM
  Relative melanin concentration (%): 71.4%
